Assay results as given in ChEMBL document CHEMBL4680144, “N-thiadiazole-4-hydroxy-2-quinolone-3-carboxamides bearing heteroaromatic rings as novel antibacterial agents: Design, synthesis, biological evaluation and target identification” (Eur J Med Chem, 2020).
In brackets after ≈: the same amount, converted by molar mass. Activity calls are given as the source filed them. The rule behind the calls is not given here.

Assays:
[1] = test system: Staphylococcus aureus; experiment: Antibacterial activity against wild type methicillin-sensitive Staphylococcus aureus ATCC 29213 assessed as inhibition of bacterial growth incubated for 18 to 24 hrs by broth microdilution method; assay type: functional; settings: time 18-24 hrs
[2] = test system: Staphylococcus aureus; experiment: Antibacterial activity against methicillin-resistant Staphylococcus aureus clinical isolate 15-1 assessed as inhibition of bacterial growth incubated for 18 to 24 hrs by broth microdilution method; assay type: functional; settings: time 18-24 hrs
[3] = test system: Staphylococcus aureus; experiment: Antibacterial activity against methicillin-resistant Staphylococcus aureus clinical isolate 15-2 assessed as inhibition of bacterial growth incubated for 18 to 24 hrs by broth microdilution method; assay type: functional; settings: time 18-24 hrs
[4] = test system: Staphylococcus aureus; experiment: Antibacterial activity against methicillin-resistant Staphylococcus aureus clinical isolate 15-6 assessed as inhibition of bacterial growth incubated for 18 to 24 hrs by broth microdilution method; assay type: functional; settings: time 18-24 hrs
[5] = test system: Staphylococcus aureus; experiment: Antibacterial activity against methicillin-resistant Staphylococcus aureus clinical isolate 15-7 assessed as inhibition of bacterial growth incubated for 18 to 24 hrs by broth microdilution method; assay type: functional; settings: time 18-24 hrs
[6] = test system: Staphylococcus aureus; experiment: Antibacterial activity against methicillin-resistant Staphylococcus aureus clinical isolate 15-8 assessed as inhibition of bacterial growth incubated for 18 to 24 hrs by broth microdilution method; assay type: functional; settings: time 18-24 hrs
[7] = test system: Staphylococcus aureus; experiment: Antibacterial activity against methicillin-resistant Staphylococcus aureus clinical isolate 15-9 assessed as inhibition of bacterial growth incubated for 18 to 24 hrs by broth microdilution method; assay type: functional; settings: time 18-24 hrs
[8] = test system: Staphylococcus epidermidis; experiment: Antibacterial activity against methicillin-sensitive Staphylococcus epidermidis clinical isolate 15-4 assessed as inhibition of bacterial growth incubated for 18 to 24 hrs by broth microdilution method; assay type: functional; settings: time 18-24 hrs
[9] = test system: Enterococcus faecalis; experiment: Antibacterial activity against Enterococcus faecalis clinical isolate 15-1 assessed as inhibition of bacterial growth incubated for 18 to 24 hrs by broth microdilution method; assay type: functional; settings: time 18-24 hrs
[10] = test system: Enterococcus faecalis; experiment: Antibacterial activity against Enterococcus faecalis clinical isolate 15-2 assessed as inhibition of bacterial growth incubated for 18 to 24 hrs by broth microdilution method; assay type: functional; settings: time 18-24 hrs
[11] = test system: Enterococcus faecium; experiment: Antibacterial activity against Enterococcus faecium clinical isolate 15-2 assessed as inhibition of bacterial growth incubated for 18 to 24 hrs by broth microdilution method; assay type: functional; settings: time 18-24 hrs
[12] = test system: Enterococcus faecalis; experiment: Antibacterial activity against vancomycin-resistant Enterococcus faecalis ATCC 51299 assessed as inhibition of bacterial growth incubated for 18 to 24 hrs by broth microdilution method; assay type: functional; settings: time 18-24 hrs
[13] = test system: Enterococcus faecalis; experiment: Antibacterial activity against vancomycin-resistant Enterococcus faecalis ATCC 700802 assessed as inhibition of bacterial growth incubated for 18 to 24 hrs by broth microdilution method; assay type: functional; settings: time 18-24 hrs
[14] = test system: Enterococcus faecalis; experiment: Antibacterial activity against vancomycin-resistant Enterococcus faecalis ATCC 51575 assessed as inhibition of bacterial growth incubated for 18 to 24 hrs by broth microdilution method; assay type: functional; settings: time 18-24 hrs
[15] = test system: HUVEC; experiment: Cytotoxicity against HUVEC assessed as reduction in cell viability after 72 hrs by sulforhodamine B assay; assay type: cell-based; settings: Homo sapiens
[16] = Selectivity index, ratio of IC50 for human HepG2 cells to MIC for methicillin-resistant Staphylococcus aureus; assay type: toxicity
[17] = Selectivity index, ratio of IC50 for human HUVEC cells to MIC for methicillin-resistant Staphylococcus aureus; assay type: toxicity
[18] = test system: Staphylococcus aureus; experiment: Bactericidal activity against methicillin-resistant Staphylococcus aureus clinical isolate 15-1 assessed as reduction in log10CFU at 8 times MIC measured over 24 hrs by time kill kinetics analysis; assay type: functional
[19] = AUCinfinity in Kunming mouse at 10 mg/kg, po by HPLC analysis; assay type: ADME, organism-based; parameters: time infinity, route oral, dose 10 mg/kg; settings: in vivo
[20] = Tmax in Kunming mouse at 10 mg/kg, po measured upto 72 hrs by HPLC analysis; assay type: ADME, organism-based; settings: in vivo
[21] = Cmax in Kunming mouse at 10 mg/kg, po measured upto 72 hrs by HPLC analysis; assay type: ADME, organism-based; parameters: route oral, dose 10 mg/kg, time <=72; settings: in vivo
[22] = test system: Staphylococcus aureus; experiment: In vivo antibacterial activity against methicillin resistant Staphylococcus aureus clinical isolate 15-1 infected in kunming mouse assessed as animal survival rate at 9 mg/kg, po administered 6 hrs prior to bacterial infection and at 0 and 6 hrs post infection and measured for 7 days (reference value: 12.5 %); assay type: functional; settings: 15-1, po, 168 h, time 7 day
[23] = Protein binding in mouse plasma at 5 uM incubated for 5 hrs by equilibrium dialysis based LC-MS/MS analysis; assay type: ADME, cell-free; settings: read-out: PPB
[24] = test system: Staphylococcus aureus; experiment: Inhibition of Staphylococcus aureus Gyrase B assessed as reduction in supercoiled pBR322 DNA production incubated for 30 mins by ethidium bromide staining based agarose gel electrophoresis method; settings: dose 0.1-100 µM
[25] = biological target: DNA topoisomerase 4 subunit B (Staphylococcus aureus, UniProt P0C1S7); experiment: Inhibition of Staphylococcus aures ParE using pBR322 DNA as substrate in presence of ATP
[26] = test system: Staphylococcus aureus; experiment: Bactericidal activity against methicillin-resistant Staphylococcus aureus clinical isolate 15-1 assessed as reduction in log10CFU at 1 to 2 times MIC measured after 24 hrs by time kill kinetics analysis; assay type: functional, organism-based
[27] = Toxicity in Kunming mouse assessed as death at 30 mg/kg, po; assay type: organism-based; settings: in vivo
[28] = test system: Staphylococcus aureus; experiment: Potency index, ratio of vancomycin MIC to test compound MIC for antibacterial activity against methicillin-resistant Staphylococcus aureus clinical isolate 15-1 assessed as inhibition of bacterial growth incubated for 18 to 24 hrs by broth microdilution method; assay type: functional; settings: time 18-24 hrs
[29] = test system: Staphylococcus aureus; experiment: Potency index, ratio of vancomycin MIC to test compound MIC for antibacterial activity against methicillin-resistant Staphylococcus aureus clinical isolate 15-3 assessed as inhibition of bacterial growth incubated for 18 to 24 hrs by broth microdilution method; assay type: functional; settings: time 18-24 hrs
[30] = test system: Staphylococcus aureus; experiment: Potency index, ratio of vancomycin MIC to test compound MIC for antibacterial activity against methicillin-resistant Staphylococcus aureus clinical isolate 15-7 assessed as inhibition of bacterial growth incubated for 18 to 24 hrs by broth microdilution method; assay type: functional; settings: time 18-24 hrs
[31] = test system: Staphylococcus aureus; experiment: Potency index, ratio of vancomycin MIC to test compound MIC for antibacterial activity against methicillin-resistant Staphylococcus aureus clinical isolate 15-8 assessed as inhibition of bacterial growth incubated for 18 to 24 hrs by broth microdilution method; assay type: functional; settings: time 18-24 hrs
[32] = test system: Staphylococcus aureus; experiment: Potency index, ratio of vancomycin MIC to test compound MIC for antibacterial activity against methicillin-resistant Staphylococcus aureus clinical isolate 15-9 assessed as inhibition of bacterial growth incubated for 18 to 24 hrs by broth microdilution method; assay type: functional; settings: time 18-24 hrs
[33] = test system: Staphylococcus aureus; experiment: Potency index, ratio of vancomycin MIC to test compound MIC for antibacterial activity against methicillin resistant and vancomycin-intermediate sensitive Staphylococcus aureus ATCC 700699 assessed as inhibition of bacterial growth incubated for 18 to 24 hrs by broth microdilution method; assay type: functional; settings: time 18-24 hrs
[34] = test system: Staphylococcus aureus; experiment: Potency index, ratio of vancomycin MIC to test compound MIC for antibacterial activity against methicillin resistant and vancomycin-intermediate sensitive Staphylococcus aureus ATCC 700788 assessed as inhibition of bacterial growth incubated for 18 to 24 hrs by broth microdilution method; assay type: functional; settings: time 18-24 hrs
[35] = test system: Staphylococcus epidermidis; experiment: Potency index, ratio of vancomycin MIC to test compound MIC for antibacterial activity against methicillin-sensitive Staphylococcus epidermidis clinical isolate 15-3 assessed as inhibition of bacterial growth incubated for 18 to 24 hrs by broth microdilution method; assay type: functional; settings: time 18-24 hrs
[36] = test system: Enterococcus faecalis; experiment: Potency index, ratio of vancomycin MIC to test compound MIC for antibacterial activity against Enterococcus faecalis clinical isolate 15-2 assessed as inhibition of bacterial growth incubated for 18 to 24 hrs by broth microdilution method; assay type: functional; settings: time 18-24 hrs
[37] = test system: Enterococcus faecium; experiment: Potency index, ratio of vancomycin MIC to test compound MIC for antibacterial activity against Enterococcus faecium clinical isolate 15-2 assessed as inhibition of bacterial growth incubated for 18 to 24 hrs by broth microdilution method; assay type: functional; settings: time 18-24 hrs

Chain of DNA topoisomerase 4 subunit B (P0C1S7 whole entry): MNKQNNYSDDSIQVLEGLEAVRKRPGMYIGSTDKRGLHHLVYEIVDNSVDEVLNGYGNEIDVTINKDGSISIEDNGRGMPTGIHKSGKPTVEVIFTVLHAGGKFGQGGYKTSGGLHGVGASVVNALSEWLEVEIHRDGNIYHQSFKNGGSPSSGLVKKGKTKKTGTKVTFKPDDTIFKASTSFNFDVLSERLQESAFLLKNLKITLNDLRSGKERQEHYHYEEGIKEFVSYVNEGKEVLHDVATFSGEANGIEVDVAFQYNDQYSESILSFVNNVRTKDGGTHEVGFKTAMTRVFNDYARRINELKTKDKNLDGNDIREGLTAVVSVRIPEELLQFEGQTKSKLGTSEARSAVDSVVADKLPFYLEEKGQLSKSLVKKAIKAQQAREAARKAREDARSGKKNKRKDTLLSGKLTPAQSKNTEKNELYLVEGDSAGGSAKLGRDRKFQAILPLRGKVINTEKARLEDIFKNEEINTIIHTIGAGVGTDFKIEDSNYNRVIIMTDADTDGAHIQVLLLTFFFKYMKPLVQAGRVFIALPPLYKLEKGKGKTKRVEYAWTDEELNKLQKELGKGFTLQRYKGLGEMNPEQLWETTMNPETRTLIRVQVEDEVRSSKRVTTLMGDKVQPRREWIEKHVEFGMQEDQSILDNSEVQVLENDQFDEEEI

`CCn1c(=O)c(C(=O)Nc2nnc(-c3nccs3)s2)c(O)c2ccccc21` showed an MIC [1] of 0.1 mg/L (≈ 0.25 µM), an MIC [2] of 0.5 mg/L (≈ 1.25 µM) and an MIC [3] of 0.5 mg/L (≈ 1.25 µM). The MIC [4] was 0.5 mg/L (≈ 1.25 µM), the MIC [5] was 0.5 mg/L (≈ 1.25 µM) and the MIC [6] was 0.5 mg/L (≈ 1.25 µM). It also gave an MIC [7] of 0.25 mg/L (≈ 0.626 µM), an MIC [8] of 0.5 mg/L (≈ 1.25 µM) and an MIC [9] of 0.5 mg/L (≈ 1.25 µM). For the same compound, the MIC [10] was 0.5 mg/L (≈ 1.25 µM), the MIC [11] was 1 mg/L (≈ 2.5 µM) and the MIC [12] was 0.5 mg/L (≈ 1.25 µM). For the same compound, the MIC [13] was 0.5 mg/L (≈ 1.25 µM), the MIC [14] was 0.5 mg/L (≈ 1.25 µM) and the IC50 [15] was 38.8 µM. It also gave a selectivity ratio [16] of 111, a selectivity ratio [17] of 77.6 and an Activity [18] of 3 log10CFU/ml. The AUC(0-inf) [19] was 2.62 µg·h/mL, the Tmax [20] was 1 h and the Cmax [21] was 0.827 µg/mL. The survival at 9 mg/kg [22] was 87.5%, the fraction unbound at 5 h, 5 µM [23] was 0.001 and the inhibition [24] was “Dose-dependent effect”. For the same compound, the IC50 [25] was greater than 100 µM, the Activity [26] was “Active” and the Activity [27] was “Non-Toxic”. For the same compound, the Ratio [28] was 2, the Ratio [29] was 2 and the Ratio [30] was 2. It also gave a Ratio [31] of 2, a Ratio [32] of 2 and a Ratio [33] of 2. The Ratio [34] was 2, the Ratio [35] was 2 and the Ratio [36] was 2. For the same compound, the Ratio [37] was 2.
